The compounds below were run against DNA (cytosine-5)-methyltransferase 1 (Homo sapiens, UniProt P26358) (assay: Biochemical Activity Assay).
Procedure: Biochemical activity of DNMT1 analyzed using SPA technology. […] Low control wells contained 5 μL of buffer instead of enzyme. Following a 40 minute incubation, the reaction was quenched upon the addition of 10 μL of stop mixture containing 1 mM SAM (Sigma A7007) and 2 mg/mL PEI beads (Perkin Elmer RPNQ0098).

DNA (cytosine-5)-methyltransferase 1, sequence (P26358 whole entry): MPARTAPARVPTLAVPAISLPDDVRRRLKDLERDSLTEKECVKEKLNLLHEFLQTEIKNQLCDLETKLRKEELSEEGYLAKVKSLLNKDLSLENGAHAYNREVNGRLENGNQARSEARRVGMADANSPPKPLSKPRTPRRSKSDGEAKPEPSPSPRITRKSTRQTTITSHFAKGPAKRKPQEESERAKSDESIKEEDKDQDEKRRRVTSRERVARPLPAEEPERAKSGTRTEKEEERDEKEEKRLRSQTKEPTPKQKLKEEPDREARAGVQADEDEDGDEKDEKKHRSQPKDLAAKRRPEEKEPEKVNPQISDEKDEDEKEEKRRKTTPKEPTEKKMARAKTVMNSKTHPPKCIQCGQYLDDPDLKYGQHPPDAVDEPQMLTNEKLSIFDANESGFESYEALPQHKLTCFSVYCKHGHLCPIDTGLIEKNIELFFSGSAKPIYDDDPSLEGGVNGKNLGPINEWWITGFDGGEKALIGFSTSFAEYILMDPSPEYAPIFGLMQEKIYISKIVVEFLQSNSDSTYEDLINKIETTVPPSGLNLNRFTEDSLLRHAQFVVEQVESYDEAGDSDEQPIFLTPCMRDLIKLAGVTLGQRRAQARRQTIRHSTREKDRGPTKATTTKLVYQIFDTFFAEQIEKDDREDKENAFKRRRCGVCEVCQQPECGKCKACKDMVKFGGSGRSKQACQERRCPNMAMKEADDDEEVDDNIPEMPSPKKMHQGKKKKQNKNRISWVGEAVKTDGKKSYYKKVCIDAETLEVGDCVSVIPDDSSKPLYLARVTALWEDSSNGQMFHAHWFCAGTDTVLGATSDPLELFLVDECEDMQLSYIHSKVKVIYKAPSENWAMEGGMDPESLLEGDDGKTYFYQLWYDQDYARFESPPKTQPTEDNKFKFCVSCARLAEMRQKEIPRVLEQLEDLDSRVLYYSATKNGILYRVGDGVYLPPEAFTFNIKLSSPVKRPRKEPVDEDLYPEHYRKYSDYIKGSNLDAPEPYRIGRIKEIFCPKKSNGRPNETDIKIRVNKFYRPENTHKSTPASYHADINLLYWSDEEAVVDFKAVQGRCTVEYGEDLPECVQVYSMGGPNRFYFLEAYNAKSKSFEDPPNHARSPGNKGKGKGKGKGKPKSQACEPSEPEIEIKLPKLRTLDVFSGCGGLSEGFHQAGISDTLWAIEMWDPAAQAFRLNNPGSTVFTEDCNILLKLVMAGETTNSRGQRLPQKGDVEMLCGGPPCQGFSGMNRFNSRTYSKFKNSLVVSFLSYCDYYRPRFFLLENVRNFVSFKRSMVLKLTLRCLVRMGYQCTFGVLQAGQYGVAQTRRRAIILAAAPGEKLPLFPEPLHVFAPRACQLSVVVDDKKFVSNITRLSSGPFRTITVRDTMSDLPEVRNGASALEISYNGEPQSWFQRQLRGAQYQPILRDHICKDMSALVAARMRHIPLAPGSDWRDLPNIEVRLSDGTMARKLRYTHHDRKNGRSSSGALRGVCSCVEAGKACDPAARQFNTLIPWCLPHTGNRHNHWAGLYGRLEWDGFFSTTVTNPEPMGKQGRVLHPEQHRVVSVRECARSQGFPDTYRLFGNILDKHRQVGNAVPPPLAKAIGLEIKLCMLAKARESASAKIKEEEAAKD

IC50, < 0.32 µM:
CCc1c(C#N)c(SC(C(N)=O)c2ccccc2)nc(N2CCC(N3[C@H](C)CC[C@H]3C)CC2)c1C#N (some centres undefined) [US10975056, Example 472]
CCc1c(C#N)c(SC(C(N)=O)c2ccccc2)nc(N(C)CC(=O)N2CC[C@@H](CO)C2)c1C#N (some centres undefined) [US10975056, Example 652]
CCc1c(C#N)c(SC(C(N)=O)c2ccccc2)nc(N2CCC(NCC3(C)CCC3)CC2)c1C#N (centres undefined) [US10975056, Example 466]
CCc1c(C#N)c(SCc2ccc(S(N)(=O)=O)cc2)nc(N2CCCN(C)CC2)c1C#N [US10975056, Example 76]
